The OligoGym collection
Only the 19 paired bases of each siRNA are shown; overhangs and chemistry are not given here.

Columns and labels:
LMNA = assay: five studies, different assays; details: siRNA
PPIB = assay: five studies, different assays; details: siRNA
Also: test concentration or dose not given here.

Row | Substance | target inhibition (LMNA) | target inhibition (PPIB)
1 | sense AAGGAGCUGGAGAAGACUU / antisense AAGUCUUCUCCAGCUCCUU | 91% | –
2 | sense AGCAGUAUAAGAAGGAGCU / antisense AGCUCCUUCUUAUACUGCU | 84% | –
3 | sense GCAGUAUAAGAAGGAGCUG / antisense CAGCUCCUUCUUAUACUGC | 82% | –
4 | sense GAGAAGACUUAUUCUGCCA / antisense UGGCAGAAUAAGUCUUCUC | 97% | –
5 | sense GGCAUCUGCCAGCGGCUCA / antisense UGAGCCGCUGGCAGAUGCC | 92% | –
6 | sense GUUAUUUUCUACAGUGGUU / antisense AACCACUGUAGAAAAUAAC | 98% | –
7 | sense UGGAGAAGACUUAUUCUGC / antisense GCAGAAUAAGUCUUCUCCA | 81% | –
8 | sense UAUAAGAAGGAGCUGGAGA / antisense UCUCCAGCUCCUUCUUAUA | 90% | –
9 | sense GGGCGGAGACUUCACCAGG / antisense CCUGGUGAAGUCUCCGCCC | – | 89%
10 | sense AGGAGAGAAAGGAUUUGGC / antisense GCCAAAUCCUUUCUCUCCU | – | 88.4%
11 | sense GCCAAAGAAAAAUAACCCU / antisense AGGGUUAUUUUUCUUUGGC | 96% | –
12 | sense UCUACGGUGAGCGCUUCCC / antisense GGGAAGCGCUCACCGUAGA | – | 2.8%
13 | sense GCUGGAGAAGACUUAUUCU / antisense AGAAUAAGUCUUCUCCAGC | 96% | –
14 | sense AACUUCAAACUGAAGCACU / antisense AGUGCUUCAGUUUGAAGUU | – | 69.2%
15 | sense UGCCAGGCAGUCUGCUGAG / antisense CUCAGCAGACUGCCUGGCA | 81% | –
16 | sense CAAGGACUUCAUGAUCCAG / antisense CUGGAUCAUGAAGUCCUUG | – | 74.4%
17 | sense AGUAUAAGAAGGAGCUGGA / antisense UCCAGCUCCUUCUUAUACU | 95% | –
18 | sense GAGAGAAAGGAUUUGGCUA / antisense UAGCCAAAUCCUUUCUCUC | – | 93.4%
19 | sense GAGGUGGUCAGCCGCGAGG / antisense CCUCGCGGCUGACCACCUC | 80% | –
20 | sense CUACAGGAGAGAAAGGAUU / antisense AAUCCUUUCUCUCCUGUAG | – | 93.9%
21 | sense AAAAACAGCAAAUUCCAUC / antisense GAUGGAAUUUGCUGUUUUU | – | 7.6%
22 | sense AAAACAGUGGAUAAUUUUG / antisense CAAAAUUAUCCACUGUUUU | – | 49.5%
23 | sense AGGACUUCAUGAUCCAGGG / antisense CCCUGGAUCAUGAAGUCCU | – | 82.9%

Row | Substance | target inhibition (LMNA) | target inhibition (PPIB)
24 | sense AGAGCAUCUACGGUGAGCG / antisense CGCUCACCGUAGAUGCUCU | – | 71.7%
25 | sense GAAGUGGCCAUGCGCAAGC / antisense GCUUGCGCAUGGCCACUUC | 70% | –
26 | sense CAAGUCCAAUGAGGACCAG / antisense CUGGUCCUCAUUGGACUUG | 79% | –
27 | sense UGGCACAGGAGGAAAGAGC / antisense GCUCUUUCCUCCUGUGCCA | – | 55.9%
28 | sense AAUUCCAUCGUGUAAUCAA / antisense UUGAUUACACGAUGGAAUU | – | 87.4%
29 | sense CCCCGAUGAGAACUUCAAA / antisense UUUGAAGUUCUCAUCGGGG | – | 84.7%
30 | sense CAUCUACGGUGAGCGCUUC / antisense GAAGCGCUCACCGUAGAUG | – | 89%
31 | sense GUGGCCUUAGCUACAGGAG / antisense CUCCUGUAGCUAAGGCCAC | – | 60.3%
32 | sense GUGAGCGCUUCCCCGAUGA / antisense UCAUCGGGGAAGCGCUCAC | – | 83.9%
33 | sense AACAGUGGAUAAUUUUGUG / antisense CACAAAAUUAUCCACUGUU | – | 16.3%
34 | sense CUUCAUGAUCCAGGGCGGA / antisense UCCGCCCUGGAUCAUGAAG | – | 88.7%
35 | sense UUGGCUACAAAAACAGCAA / antisense UUGCUGUUUUUGUAGCCAA | – | 68%
36 | sense GAUGAGAACUUCAAACUGA / antisense UCAGUUUGAAGUUCUCAUC | – | 89.7%
37 | sense UUCACCAGGGGAGAUGGCA / antisense UGCCAUCUCCCCUGGUGAA | – | 17.6%
38 | sense GGCCUUAGCUACAGGAGAG / antisense CUCUCCUGUAGCUAAGGCC | – | 94.6%
39 | sense GUUCCAAAAACAGUGGAUA / antisense UAUCCACUGUUUUUGGAAC | – | 88.1%
40 | sense GAUGGCACAGGAGGAAAGA / antisense UCUUUCCUCCUGUGCCAUC | – | 84.9%
41 | sense UCAAACUGAAGCACUACGG / antisense CCGUAGUGCUUCAGUUUGA | – | 18.1%
42 | sense CCAGGGGAGAUGGCACAGG / antisense CCUGUGCCAUCUCCCCUGG | – | 21.4%
43 | sense AAGGAUUUGGCUACAAAAA / antisense UUUUUGUAGCCAAAUCCUU | – | 81.9%
44 | sense GCGCUUCCCCGAUGAGAAC / antisense GUUCUCAUCGGGGAAGCGC | – | 92.7%
45 | sense AAAGAGCAUCUACGGUGAG / antisense CUCACCGUAGAUGCUCUUU | – | 50.7%
46 | sense UACGGUGAGCGCUUCCCCG / antisense CGGGGAAGCGCUCACCGUA | – | -9.9%

Row | Substance | target inhibition (LMNA) | target inhibition (PPIB)
47 | sense AUCGUGUAAUCAAGGACUU / antisense AAGUCCUUGAUUACACGAU | – | 86.7%
48 | sense UCCAGGGCGGAGACUUCAC / antisense GUGAAGUCUCCGCCCUGGA | – | 41.8%
49 | sense CUUCAAACUGAAGCACUAC / antisense GUAGUGCUUCAGUUUGAAG | – | 73.1%
50 | sense CAAAUUCCAUCGUGUAAUC / antisense GAUUACACGAUGGAAUUUG | – | 92.3%
51 | sense UAAUCAAGGACUUCAUGAU / antisense AUCAUGAAGUCCUUGAUUA | – | 87.9%
52 | sense AUGAUCCAGGGCGGAGACU / antisense AGUCUCCGCCCUGGAUCAU | – | 48.5%
53 | sense CCUUAGCUACAGGAGAGAA / antisense UUCUCUCCUGUAGCUAAGG | – | 77.2%
54 | sense GGAAAGAGCAUCUACGGUG / antisense CACCGUAGAUGCUCUUUCC | – | 93.3%
55 | sense GAGCGCUUCCCCGAUGAGA / antisense UCUCAUCGGGGAAGCGCUC | – | 86.5%
56 | sense AGCAAAUUCCAUCGUGUAA / antisense UUACACGAUGGAAUUUGCU | – | 86.4%
57 | sense GGGAGAUGGCACAGGAGGA / antisense UCCUCCUGUGCCAUCUCCC | – | 80.4%
58 | sense CGGUGAGCGCUUCCCCGAU / antisense AUCGGGGAAGCGCUCACCG | – | 80.2%
59 | sense AGCAUCUACGGUGAGCGCU / antisense AGCGCUCACCGUAGAUGCU | – | 64.1%
60 | sense CCAUCGUGUAAUCAAGGAC / antisense GUCCUUGAUUACACGAUGG | – | 87.4%
61 | sense GGAUUUGGCUACAAAAACA / antisense UGUUUUUGUAGCCAAAUCC | – | 83.5%
62 | sense GGCUACAAAAACAGCAAAU / antisense AUUUGCUGUUUUUGUAGCC | – | 77.4%
63 | sense CUACAAAAACAGCAAAUUC / antisense GAAUUUGCUGUUUUUGUAG | – | 71.2%
64 | sense AGACUUCACCAGGGGAGAU / antisense AUCUCCCCUGGUGAAGUCU | – | 87.6%
65 | sense ACAGGAGAGAAAGGAUUUG / antisense CAAAUCCUUUCUCUCCUGU | – | 84.9%
66 | sense GAAAGGAUUUGGCUACAAA / antisense UUUGUAGCCAAAUCCUUUC | – | 94.2%
67 | sense UUUUGUGGCCUUAGCUACA / antisense UGUAGCUAAGGCCACAAAA | – | 52%
68 | sense AUCAAGGACUUCAUGAUCC / antisense GGAUCAUGAAGUCCUUGAU | – | 66.4%
69 | sense AGGGGAGAUGGCACAGGAG / antisense CUCCUGUGCCAUCUCCCCU | – | 76.1%

Row | Substance | target inhibition (LMNA) | target inhibition (PPIB)
70 | sense ACAGGAGGAAAGAGCAUCU / antisense AGAUGCUCUUUCCUCCUGU | – | 74.5%
71 | sense UGUAAUCAAGGACUUCAUG / antisense CAUGAAGUCCUUGAUUACA | – | 63.9%
72 | sense GGAUAAUUUUGUGGCCUUA / antisense UAAGGCCACAAAAUUAUCC | – | 83.9%
73 | sense AAUUUUGUGGCCUUAGCUA / antisense UAGCUAAGGCCACAAAAUU | – | 81.3%
74 | sense UGAGAACUUCAAACUGAAG / antisense CUUCAGUUUGAAGUUCUCA | – | 41.7%
75 | sense CAGUGGAUAAUUUUGUGGC / antisense GCCACAAAAUUAUCCACUG | – | 39.7%
76 | sense CAGGGCGGAGACUUCACCA / antisense UGGUGAAGUCUCCGCCCUG | – | 46.8%
77 | sense UCAUGAUCCAGGGCGGAGA / antisense UCUCCGCCCUGGAUCAUGA | – | 92.8%
78 | sense AGGAGGAAAGAGCAUCUAC / antisense GUAGAUGCUCUUUCCUCCU | – | 58.9%
79 | sense UUAGCUACAGGAGAGAAAG / antisense CUUUCUCUCCUGUAGCUAA | – | 30.7%
80 | sense CAAAAACAGUGGAUAAUUU / antisense AAAUUAUCCACUGUUUUUG | – | 90.2%
81 | sense CACCAGGGGAGAUGGCACA / antisense UGUGCCAUCUCCCCUGGUG | – | 73.8%
82 | sense UUCCAUCGUGUAAUCAAGG / antisense CCUUGAUUACACGAUGGAA | – | 45.9%
83 | sense GACUUCAUGAUCCAGGGCG / antisense CGCCCUGGAUCAUGAAGUC | – | 51.2%
84 | sense ACAAAAACAGCAAAUUCCA / antisense UGGAAUUUGCUGUUUUUGU | – | 78.5%
85 | sense GAGGAAAGAGCAUCUACGG / antisense CCGUAGAUGCUCUUUCCUC | – | 58.4%
86 | sense AUUUGGCUACAAAAACAGC / antisense GCUGUUUUUGUAGCCAAAU | – | 13.8%
87 | sense ACAGCAAAUUCCAUCGUGU / antisense ACACGAUGGAAUUUGCUGU | – | 91.9%
88 | sense UUCCCCGAUGAGAACUUCA / antisense UGAAGUUCUCAUCGGGGAA | – | 83.8%
89 | sense AAACAGCAAAUUCCAUCGU / antisense ACGAUGGAAUUUGCUGUUU | – | 7.3%
